Converted amounts (≈) assume the structure as drawn. Where only a bound is given, the exact number is not on record here.

The record followed here is patent US12655173B2, “Hybrid amide derivatives of amphotericin B” (priority 2020, dated 2026).

The subject of one series is Af 3626 (ATCC strain). As to the kind of experiment: MIC against azole and echinocandin resistant fungal strains (CLSI). It is filed as cell-based. The note with it: read-out: MIC Af 3626. On the procedure:
(§1) This experiment was performed following the standard CLSI protocol.

The test system of series [1] is Af F16134, azole resistant (M220K). The series is described as above. It is filed as cell-based. The settings on record: read-out: MIC Af F16134. On the procedure: as §1
Series [2] has as its system Af F16216, azole resistant (L98H + TR). The description is as above. The class given is cell-based. The settings on record: read-out: MIC Af F16216. The procedure:
as §1

Series [3] deals with Af F7075, azole resistant (G54E). The series is described as above. It is filed as cell-based. The settings on record: read-out: MIC Af F7075. On the procedure:
as §1

Series [4] relates to EMFR-S678P, echinocandin resistant. The series is described as above. It is filed as cell-based. The settings on record: read-out: MIC EMFR-S678P. The procedure:
as §1

The nature of series [5]: In vivo toxicity in murine model: mice alive / distress-free. The note with it: 45 mg/kg IV, 24 h.
Series [6] is described as follows: In vivo tolerance in mice: survival and distress. The settings on record: tail vein, 24 h.
The subject of another series is CEA10 (clinical isolate). As to the kind of experiment: MIC against azole and echinocandin resistant fungal strains (CLSI). The class given is cell-based, A. funigatus. The note with it: read-out: MIC CEA10. On the procedure:
as §1

Series [7] deals with Af F12776, azole resistant (Y431C). The series is described as above. It is filed as cell-based. The settings on record: read-out: MIC Af F12776. The procedure: as §1
Series [8] relates to Af F14946, azole resistant (G138C). The series is described as above. It is filed as cell-based. The settings on record: read-out: MIC Af F14946. The procedure:
as §1

Consider `CC[C@H](C)C[C@H](C)CCCCCCCCC(=O)N[C@H]1C[C@@H](O)[C@@H](NCCN)NC(=O)[C@@H]2[C@@H](O)CCN2C(=O)[C@H]([C@H](O)CCN)NC(=O)[C@H]([C@H](O)[C@@H](O)c2ccc(O)cc2)NC(=O)[C@@H]2C[C@@H](O)CN2C(=O)[C@H]([C@@H](C)O)NC1=O` [Caspofungin], for which the minimum inhibitory concentration (MIC) was 0.41 µM (≈ 0.448 µg/mL) in the series with Af 3626 (ATCC strain); 0.21 µM (≈ 0.23 µg/mL) in series [1]; 0.41 µM (≈ 0.448 µg/mL) in series [2]; 0.82 µM (≈ 0.897 µg/mL) in series [3]; > 3.3 µM in series [4].

With `C[C@@H]1[C@H](O)[C@@H](C)/C=C/C=C/C=C/C=C/C=C/C=C/C=C/[C@H](O[C@@H]2O[C@H](C)[C@@H](O)[C@H](N)[C@H]2O)C[C@@H]2O[C@](O)(C[C@@H](O)C[C@@H](O)[C@H](O)CC[C@@H](O)C[C@@H](O)CC(=O)O[C@H]1C)C[C@H](O)[C@H]2C(=O)O` [C2′epiAmB], in series [5], the “# of mice alive” value is 4/4 and the “# of mice distress-free” value is listed as 4/4.

Turning to `C[C@H](CCC(=O)O)[C@H]1CC[C@H]2[C@@H]3CC[C@@H]4C[C@H](O)CC[C@]4(C)[C@H]3C[C@H](O)[C@]12C` [Deoxycholate], the Distressed in series [6] (Dose 1 mg/kg), in series [6] (Dose 4 mg/kg) and in series [6] (Dose 45 mg/kg) was 0/4 each time. The “Survival (alive/total)” value in series [6] (Dose 1 mg/kg), in [6] (Dose 4 mg/kg) and in [6] (Dose 45 mg/kg) was 4/4 throughout.

`CC[C@@H]([C@H](C)O)n1ncn(-c2ccc(N3CCN(c4ccc(OC[C@@H]5CO[C@@](Cn6cncn6)(c6ccc(F)cc6F)C5)cc4)CC3)cc2)c1=O` [Posaconazole]: the MIC in the series with CEA10 (clinical isolate) was determined as 0.18 µM (≈ 0.126 µg/mL); in series [2] it was 1.43 µM (≈ 1 µg/mL).

Regarding `C[C@@H](c1ncncc1F)[C@](O)(Cn1cncn1)c1ccc(F)cc1F` [Voriconazole], the MIC was 0.72 µM (≈ 0.252 µg/mL) with Af 3626 (ATCC strain); > 11.5 µM in series [7]; > 11.5 µM in series [8]; > 11.5 µM in series [1]; > 11.5 µM in [2]; 5.73 µM (≈ 2 µg/mL) in series [3].

One may read the MIC as the least concentration at which growth counts as inhibited.
